In patent US7902187B2, “6-substituted 2-(benzimidazolyl)purine and purinone derivatives for immunosuppression” (Wyeth LLC, priority 2006, dated 2011):
Read-outs that look alike come from different tables or passages of the source.

Legend:
[1] = biological target: T1, Jak3 (Homo sapiens, UniProt P52333); assay: Jak3 Kinase Assay (HTRF); type: biochemical; conditions: GST-Jak3 catalytic domain, 1 μM ATP, 60-min incubation; read-out: Jak3 Kinase, IC50 representation
T1 construct: A fragment encoding the catalytic domain of Jak3 (508aa to 1124aa) was ligated with GST at 5′ end; made in house; host or cells: Sf9 insect cells (baculovirus, pFastBac 1)
T1 sequence (P52333 508-1124): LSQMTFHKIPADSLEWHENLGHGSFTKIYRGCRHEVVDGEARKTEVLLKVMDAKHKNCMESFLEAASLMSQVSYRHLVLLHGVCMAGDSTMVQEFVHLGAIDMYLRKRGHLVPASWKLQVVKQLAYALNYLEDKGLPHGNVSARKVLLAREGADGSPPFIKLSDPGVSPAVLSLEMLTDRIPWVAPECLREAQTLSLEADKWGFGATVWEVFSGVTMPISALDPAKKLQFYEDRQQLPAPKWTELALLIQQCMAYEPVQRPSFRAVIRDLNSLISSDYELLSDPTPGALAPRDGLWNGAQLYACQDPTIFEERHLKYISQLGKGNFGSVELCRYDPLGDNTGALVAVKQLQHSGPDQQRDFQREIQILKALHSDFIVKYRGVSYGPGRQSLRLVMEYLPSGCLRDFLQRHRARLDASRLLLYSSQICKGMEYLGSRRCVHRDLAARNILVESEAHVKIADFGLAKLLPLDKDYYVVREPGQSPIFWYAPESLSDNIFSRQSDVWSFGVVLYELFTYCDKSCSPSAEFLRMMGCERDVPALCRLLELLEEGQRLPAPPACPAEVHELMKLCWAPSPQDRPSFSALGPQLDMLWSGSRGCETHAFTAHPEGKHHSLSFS
Method: Human Jak3 cDNA was amplified by PCR. A fragment encoding the catalytic domain of Jak3 (508aa to 1124aa) was ligated with GST at 5′ end. This fused GST-Jak3 DNA fragment was cloned into the EcoRI site of the donor plasmid pFastBac 1 (Life Technologies #10359-016). The transformation, transposition, and transfection of insect cells (Sf9) were performed according to the manufacture's instructions. The cell lysate containing recombinant GST-Jak3 was used in the kinase assay. Anti-GST antibody (10 μg/ml, Sigma #G1417) was coated onto a 384-well plate at 4° C. overnight. Cell lysate containing GST-Jak3 (1:100 dilution) was added to the anti-GST coated plates, and GST-Jak3 was captured by immobilized anti-GST antibody. Testing compounds and substrate mix (50 mM HEPES, pH 7, 0.5 mM Na3VO4, 25 mM MgCl2, 1 mM DTT, 0.005% BSA, 1 μM ATP, and 4.5 μg/ml biotinyl poly-Glu,Ala,Tyr) were added to the plate to initiate the reaction. After a 60-min incubation, the reaction was stopped by 4 mM EDTA, and phosphorylation of biotinyl poly-Glu,Ala,Tyr was detected using 17 μg/ml Cy5-streptavidin (Amersham, #PA92005) and 2.7 μg/ml Europium-conjugated anti-phosphotyrosine antibody (PerkinElmer #AD0069) using homogeneous time-resolved fluorescence (HTRF) technology.

[2] = murine model of heart transplantation; cited from earlier work
[3] = primate model of kidney transplantation; cited from earlier work
[4] = biological target: T2, Jak3 (Homo sapiens, UniProt P52333); conditions: leukemia cells; cited from earlier work
T2 construct: host or cells: leukemia cells (not specified)
T2 sequence (P52333 1-1124): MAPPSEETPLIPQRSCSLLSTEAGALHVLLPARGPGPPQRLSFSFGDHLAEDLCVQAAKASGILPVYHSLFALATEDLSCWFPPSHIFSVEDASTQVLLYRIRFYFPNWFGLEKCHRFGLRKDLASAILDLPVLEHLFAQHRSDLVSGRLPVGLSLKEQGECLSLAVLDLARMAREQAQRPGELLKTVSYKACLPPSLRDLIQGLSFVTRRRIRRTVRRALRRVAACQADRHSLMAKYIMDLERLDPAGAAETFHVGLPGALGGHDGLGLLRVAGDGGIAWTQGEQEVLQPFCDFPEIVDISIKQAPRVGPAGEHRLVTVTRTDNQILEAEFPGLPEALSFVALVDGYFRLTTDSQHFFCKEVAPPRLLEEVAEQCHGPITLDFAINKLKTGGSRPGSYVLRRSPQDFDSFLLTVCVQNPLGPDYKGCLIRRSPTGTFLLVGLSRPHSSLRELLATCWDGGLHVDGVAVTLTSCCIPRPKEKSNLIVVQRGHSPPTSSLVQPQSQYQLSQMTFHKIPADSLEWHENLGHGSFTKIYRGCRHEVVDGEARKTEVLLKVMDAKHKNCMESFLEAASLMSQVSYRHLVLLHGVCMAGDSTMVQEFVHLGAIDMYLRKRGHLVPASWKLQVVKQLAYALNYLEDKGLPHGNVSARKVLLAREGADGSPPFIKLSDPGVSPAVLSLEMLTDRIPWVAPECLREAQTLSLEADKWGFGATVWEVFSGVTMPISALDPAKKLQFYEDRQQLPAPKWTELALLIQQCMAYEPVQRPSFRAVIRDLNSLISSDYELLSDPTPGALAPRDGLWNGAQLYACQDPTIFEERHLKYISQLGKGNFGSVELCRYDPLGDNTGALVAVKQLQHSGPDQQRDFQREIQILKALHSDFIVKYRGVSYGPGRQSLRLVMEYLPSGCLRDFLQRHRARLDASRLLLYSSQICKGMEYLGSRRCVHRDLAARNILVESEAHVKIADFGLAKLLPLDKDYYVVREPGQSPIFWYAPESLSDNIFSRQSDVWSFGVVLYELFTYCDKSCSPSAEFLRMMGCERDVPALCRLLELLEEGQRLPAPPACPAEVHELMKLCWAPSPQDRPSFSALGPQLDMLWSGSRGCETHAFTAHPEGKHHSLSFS

[5] = NOD mouse; cited from earlier work
[6] = in vivo; cited from earlier work

| Structure (SMILES) | IC50 [1] | further results |
| --- | --- | --- |
| NC(=O)C1CCN(c2nc(-n3cnc4ccc(Cl)cc43)nc3c2[nH]c(=O)n3C2CCOCC2)CC1 | < 100 nM | – |
| CC(c1cccnc1)n1c(=O)[nH]c2c(N3CC(F)(F)C3)nc(-n3cnc4ccc(C#N)cc43)nc21 (centres unmarked) | < 100 nM | – |
| N#Cc1ccc2ncn(-c3nc(-c4ccncc4)c4[nH]c(=O)n(C5CCOCC5)c4n3)c2c1 | < 100 nM | – |
| C[C@@H]1CCN(C(=O)CC#N)C[C@@H]1N(C)c1ncnc2[nH]ccc12 [CP-690,550] | – | animal survival [2]: prolong animal survival; animal survival [3]: prolong animal survival |
| COc1cc2ncnc(Nc3ccc(O)cc3)c2cc1OC [JANEX-1] | – | selectivity of Jak3 inhibition [4]: selective inhibitors of Jak3; spontaneous autoimmune diabetes development [5]: prevent spontaneous autoimmune diabetes development; severity of GVHD [6]: attenuate the severity of GVHD |
| COc1cc2ncnc(Nc3ccc(O)c(Br)c3)c2cc1OC [WHI-P154] | – | selectivity of Jak3 inhibition [4]: selective inhibitors of Jak3 |

Second part, led by results:

| IC50 [1] | Structure (SMILES) | further results |
| --- | --- | --- |
| < 100 nM | CC(C)(C)OC(=O)NCCCNc1nc(-n2cnc3ccc(C#N)cc32)nc2c1[nH]c(=O)n2C1CCOCC1 | – |
| < 100 nM | O=c1[nH]c2c(N3CCC(F)(F)C3)nc(-n3cnc4ccc(F)cc43)nc2n1C1CCOCC1 | – |
| < 100 nM | O=c1[nH]c2c(N3CC(F)(F)C3)nc(-n3cnc4ccc(F)cc43)nc2n1C1CCOCC1 | – |
| < 100 nM | O=c1[nH]c2c(NC3CNC3)nc(-n3cnc4ccc(F)cc43)nc2n1C1CCOCC1 | – |
| < 100 nM | O=c1[nH]c2c(N3CCC3)nc(-n3cnc4ccc(Cl)cc43)nc2n1C1CCOCC1 | – |
| < 100 nM | O=c1[nH]c2c(NCC3CNC3)nc(-n3cnc4ccc(F)cc43)nc2n1C1CCOCC1 | – |
| < 100 nM | Cn1cc(-c2nc(-n3cnc4ccc(F)cc43)nc3c2[nH]c(=O)n3C2CCOCC2)cn1 | – |
| < 100 nM | O=c1[nH]c2c(N3CCC3)nc(-n3cnc4ccc(F)cc43)nc2n1C1CCOCC1 | – |
